From US12359236B2, “Production of 2-hydroxyacyl-CoAs and derivatives thereof” (Mojia Biotech Pte. Ltd., priority 2019, dated 2025)

Columns and labels:
Type in all cases: biochemical
[1] = target: Rhodospirillales bacterium URHD0017 2-hydroxyacyl-CoA lyase (RuHACL), wild type, UniProt: A0A1H8YFL8; experiment: Kinetics of RuHACL-catalyzed condensation (ligation) of acetone with formyl-CoA; conditions: 0.5 μM purified RuHACL, 1 mM formyl-CoA, acetone varied, 50 mM KPi pH 7.4, 2.5 mM MgCl2, 0.1 mM TPP, room temperature, 1 min; Michaelis-Menten fit
Procedure: 0.5 μM purified RuHACL was incubated with 1 mM formyl-CoA in a reaction mixture also containing 50 mM KPi pH 7.4, 2.5 mM MgCl2, and 0.1 mM TPP. The concentration of acetone was varied, and room temperature reactions were carried out for 1 min. 40 μL samples were quenched by addition of 10 μL 0.5 M NaOH and placed on ice. 12.5 μL of a saturated ammonium sulfate solution acidified with 1% sulfuric acid was added and the samples were analyzed by HPLC for the determination of the initial reaction rates after centrifugation at 20817×g for 15 minutes. […] The apparent kcat of RuHACL on acetone was 2.7±0.8 s^−1 while the KM was 1.57±0.68 M, corresponding to a catalytic efficiency of 1.7±0.9 s^−1 M^−1.

[2] = test system: Rhodospirillales bacterium URHD0017 2-hydroxyacyl-CoA lyase (RuHACL) variant G390N (RuHACL^G390N); experiment: Kinetics of the C1 condensation reaction of the G390N RuHACL mutant on formyl-CoA and formaldehyde; conditions: in vitro, formyl-CoA and formaldehyde as substrates
[3] = test system: formaldehyde; experiment: Cell-free prototyping of one carbon bioconversion pathway with E. coli cell extracts; conditions: for performance of enzyme variant in cell-free glycolic acid pathway: mixed extracts of HACL and ACR variants, formaldehyde as sole carbon source
Procedure: Cell-free reactions for pathway prototyping contained 50 mM KPi pH 7.4, 4 mM MgCl2, 0.1 mM TPP, 2.5 mM CoASH, 5 mM NAD^+, and 50 mM formaldehyde. For time course experiments, 0.1 mM coenzyme B12 was added. Individual cell extract loading was around 4.4 g/L protein (⅛ of the reaction volume), and the amount of protein added to each reaction was normalized with BL21(DE3) extract to ˜26 g/L protein (¾ of the reaction volume). Reactions were incubated at room temperature for one hour unless otherwise specified. ¼ of the reaction volume of saturated ammonium sulfate solution acidified with 1% sulfuric acid was added to terminate the reactions. Samples were centrifuged at 20817×g for 15 minutes and the supernatant analyzed by HPLC or GC-MS as described below. For isotope labeling experiments, 13C formaldehyde (Cambridge Isotope Laboratories, Tewksbury, MA) was used.
We combined extracts of E. coli, prepared as described in the previous example(s), expressing variants of HACL and ACR to rapidly screen for the best performing combinations. […] The combination of LmACR and RuHACL enabled the production of 6.2±0.6 mM glycolic acid in 1 hr. The use of 13C-labeled formaldehyde confirmed that the observed glycolic acid was derived from the C1 substrate, judging by the +2 shift in m/z of the [M-15]^+ ion (FIG. 13C).
Quantification of product and substrate concentrations (formic acid, formaldehyde, glycolic acid, ethylene glycol, ethanol, acetic acid) were determined via HPLC using a Shimadzu Prominence SIL 20 system (Shimadzu Scientific Instruments, Inc., Columbia, MD) equipped with a refractive index detector and an HPX-87H organic acid column (Bio-Rad, Hercules, CA) with operating conditions to optimize peak separation (0.3 ml/min flowrate, 30 mM H2SO4 mobile phase, column temperature 42° C.). Compound identification and analysis was performed by GC-MS using an Agilent 7890B Series Custom Gas Chromatography system equipped with a 5977B Inert Plus Mass Selective Detector Turbo EI Bundle (for identification) and an Agilent HP-5-ms capillary column (0.25 mm internal diameter, 0.25 μm film thickness, 30 m length).

Molecule: CC(C)=O [acetone]
- apparent kcat on acetone [1]: 2.7 ± 0.8 s⁻¹

Molecule: C=O [formaldehyde]
- KM of the mutant compared to the wild type [2]: no significant difference
- kcat of the mutant compared to the wild type [2]: no significant difference

Molecule: CC(C)(COP(=O)(O)OP(=O)(O)OC[C@H]1O[C@@H](n2cnc3c(N)ncnc32)[C@H](O)[C@@H]1OP(=O)(O)O)[C@@H](O)C(=O)NCCC(=O)NCCSC=O [formyl-CoA]
- KM of the mutant compared to the wild type [2]: no significant difference
- kcat of the mutant compared to the wild type [2]: no significant difference

Molecule: HsHACL1: 2-hydroxyacyl-CoA lyase HACL1 from Homo sapiens
- performance of enzyme variant in cell-free glycolic acid pathway [3]: enabling product synthesis

B1: FucO: E. coli 1,2-diol oxidoreductase, added as cell extract (protein, UniProt P0A9S1 1-382, looked up)
Lactaldehyde reductase: MANRMILNETAWFGRGAVGALTDEVKRRGYQKALIVTDKTLVQCGVVAKVTDKMDAAGLAWAIYDGVVPNPTITVVKEGLGVFQNSGADYLIAIGGGSPQDTCKAIGIISNNPEFADVRSLEGLSPTNKPSVPILAIPTTAGTAAEVTINYVITDEEKRRKFVCVDPHDIPQVAFIDADMMDGMPPALKAATGVDALTHAIEGYITRGAWALTDALHIKAIEIIAGALRGSVAGDKDAGEEMALGQYVAGMGFSNVGLGLVHGMAHPLGAFYNTPHGVANAILLPHVMRYNADFTGEKYRDIARVMGVKVEGMSLEEARNAAVEAVFALNRDVGIPPHLRDVGVRKEDIPALAQAALDDVCTGGNPREATLEDIVELYHTAW
modifications: cell extract
notes: E. coli 1,2-diol oxidoreductase, added as cell extract
- ethylene glycol synthesis ([3]; extract added to LmACR+RuHACL pathway): 2.73 ± 0.03 mM
- fold increase of ethylene glycol ([3]; from 1.37±0.1 mM to 2.73±0.03 mM): 2 fold

B2: OfOxc: oxalyl-CoA decarboxylase from Oxalobacter formigenes (protein, UniProt P40149 1-568, looked up)
Oxalyl-CoA decarboxylase: MSNDDNVELTDGFHVLIDALKMNDIDTMYGVVGIPITNLARMWQDDGQRFYSFRHEQHAGYAASIAGYIEGKPGVCLTVSAPGFLNGVTSLAHATTNCFPMILLSGSSEREIVDLQQGDYEEMDQMNVARPHCKASFRINSIKDIPIGIARAVRTAVSGRPGGVYVDLPAKLFGQTISVEEANKLLFKPIDPAPAQIPAEDAIARAADLIKNAKRPVIMLGKGAAYAQCDDEIRALVEETGIPFLPMGMAKGLLPDNHPQSAAATRAFALAQCDVCVLIGARLNWLMQHGKGKTWGDELKKYVQIDIQANEMDSNQPIAAPVVGDIKSAVSLLRKALKGAPKADAEWTGALKAKVDGNKAKLAGKMTAETPSGMMNYSNSLGVVRDFMLANPDISLVNEGANALDNTRMIVDMLKPRKRLDSGTWGVMGIGMGYCVAAAAVTGKPVIAVEGDSAFGFSGMELETICRYNLPVTVIIMNNGGIYKGNEADPQPGVISCTRLTRGRYDMMMEAFGGKGYVANTPAELKAALEEAVASGKPCLINAMIDPDAGVESGRIKSLNVVSKVGKK
- performance of enzyme variant in cell-free glycolic acid pathway [3]: capable of catalyzing the pathway
